Data reported in US20110136762A1, “FUNGICIDAL PYRIDAZINES” (E.I. Du Pont de Nemours and Company, priority 2008, published 2011).
Marks after values point to notes of the source that are not given here.

Experiments:
Assay type in all cases: in vivo
Septoria tritici = experiment: Test C: wheat leaf blotch, preventive spray on wheat seedlings, visual disease rating; conditions: 40 ppm (marked *), 100 = 100% disease control, 0 = no disease control relative to controls; for pest or weed control at 40 ppm: Zymoseptoria tritici, 504 h
In short: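 Wheat seedlings were sprayed to run-off with test suspension at 200 ppm (500 g/ha), or at 40 ppm where marked *. They were inoculated with spores the next day and held in saturated atmosphere at 20° C for 48 h. After a further 19 days in a growth chamber at 20° C, disease was rated visually.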

Botrytis cinerea = experiment: Test F: tomato Botrytis, preventive spray on tomato seedlings, visual disease rating; conditions: 40 ppm (marked *), 100 = 100% disease control, 0 = no disease control relative to controls; for pest or weed control at 40 ppm: Botrytis cinerea
In short: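 Preventive test: tomato seedlings sprayed to run-off at 200 ppm (500 g/ha) or, where marked *, 40 ppm, then inoculated next day with B. cinerea spores. Kept 48 h at saturated humidity and 20° C, then 3 days at 24° C. Disease assessed visually.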

Alternaria solani = experiment: Test E: tomato early blight, preventive spray on tomato seedlings, visual disease rating; conditions: 40 ppm (marked *), 100 = 100% disease control, 0 = no disease control relative to controls; for pest or weed control at 40 ppm: Alternaria solani
In short: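 Tomato seedlings sprayed to run-off with test suspension at 200 ppm (equivalent to 500 g/ha), or 40 ppm where marked "*", as a preventive treatment before A. solani challenge. Disease then rated visually.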

Septoria nodorum = experiment: Test D: wheat glume blotch, preventive spray on wheat seedlings, visual disease rating; conditions: 40 ppm (marked *), 100 = 100% disease control, 0 = no disease control relative to controls; for pest or weed control at 40 ppm: Parastagonospora nodorum
In short: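 Wheat seedlings sprayed to run-off with compound at 200 ppm (500 g/ha), or 40 ppm where marked, then inoculated with Septoria nodorum spores the next day. Held 48 h in saturated atmosphere at 20° C, then 7 days in a growth chamber at 20° C before visual disease rating.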

[1] = system: Puccinia recondita f. sp. tritici; experiment: Test B: wheat leaf rust, preventive spray on wheat seedlings, visual disease rating; conditions: 40 ppm (marked *), 100 = 100% disease control, 0 = no disease control relative to controls; for pest or weed control at 40 ppm: 192 h
In short: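 Seedlings were sprayed to run-off at 200 ppm (500 g/ha), or at 40 ppm where marked *, then inoculated with spores the next day. Plants were held at saturated humidity at 20° C for 24 h and then in a growth chamber at 20° C for 7 days before visual disease rating.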

Erysiphe graminis = experiment: Test A: wheat powdery mildew, preventive spray on wheat seedlings, visual disease rating; conditions: 40 ppm (marked *), 100 = 100% disease control, 0 = no disease control relative to controls; for pest or weed control at 40 ppm: Blumeria graminis, 192 h
In short: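 Seedlings were sprayed to run-off with test suspension at 200 ppm (500 g/ha), or 40 ppm where marked. They were dust-inoculated with spores the next day and kept 8 days at 20 °C. Disease was then rated visually.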

With `COc1ccncc1-c1c(-c2ccccc2F)nnc(Cl)c1-c1c(F)cc(F)cc1F` [Compound 40] the “Test C rating (disease control, wheat leaf blotch)” value (“Test C rating” below) (Septoria tritici) was 100* %, the “Test F rating (disease control, tomato Botrytis)” value (shortened to “Test F rating”) (Botrytis cinerea) was 100* % and the “Test E rating (disease control, tomato early blight)” value (“Test E rating” for short) (Alternaria solani) was 93* %. The “Test D rating (disease control, wheat glume blotch)” value (“Test D rating” below) (Septoria nodorum) was 60* %, the “Test B rating (disease control, wheat leaf rust)” value (shortened to “Test B rating”) [1] was 100* % and the “Test A rating (disease control, wheat powdery mildew)” value (“Test A rating” for short) (Erysiphe graminis) was 73* %.

With `Cc1nnc(-c2ccccc2F)c(-c2cncc(F)c2)c1-c1c(F)cc(F)cc1F` [Compound 41] the “Test C rating” value (Septoria tritici) was 100* %, the “Test F rating” value (Botrytis cinerea) was 100* % and the “Test E rating” value (Alternaria solani) was 98* %. For the same compound, the “Test D rating” value (Septoria nodorum) was 98* %, the “Test B rating” value [1] was 100* % and the “Test A rating” value (Erysiphe graminis) was 97* %.

In the case of `COc1ccncc1-c1c(-c2ccccc2F)nnc(C)c1-c1c(F)cc(F)cc1F` [Compound 42], the “Test C rating” value (Septoria tritici) is reported as 100* %, the “Test F rating” value (Botrytis cinerea) is reported as 100* % and the “Test E rating” value (Alternaria solani) is reported as 41* %. For the same compound, the “Test D rating” value (Septoria nodorum) was 0* %, the “Test B rating” value [1] was 99* % and the “Test A rating” value (Erysiphe graminis) was 78* %.

With `COc1cc(OC)c(Cl)c(-c2c(-c3ccccc3F)nnc(Cl)c2-c2c(F)cc(F)cc2F)c1` [Compound 43] the “Test C rating” value (Septoria tritici) was 97* %, the “Test F rating” value (Botrytis cinerea) was 100* % and the “Test E rating” value (Alternaria solani) was 99* %. The “Test D rating” value (Septoria nodorum) was 100* %, the “Test B rating” value [1] was 100* % and the “Test A rating” value (Erysiphe graminis) was 99* %.

`COc1cncc(-c2c(-c3ccccc3F)nnc(Cl)c2-c2c(F)cc(F)cc2F)c1` [Compound 44, 3-chloro-6-(2-fluorophenyl)-5-(5-methoxy-3-pyridinyl)-4-(2,4,6-trifluorophenyl)pyridazine] gave a pest or weed control at 40 ppm (Septoria tritici) of 99%, a pest or weed control at 40 ppm (Botrytis cinerea) of 100% and a pest or weed control at 40 ppm (Alternaria solani) of 100%. It also gave a pest or weed control at 40 ppm (Septoria nodorum) of 100%, a pest or weed control at 40 ppm [1] of 99% and a pest or weed control at 40 ppm (Erysiphe graminis) of 100%.

`COc1cc(OC)cc(-c2c(-c3ccccc3F)nnc(Cl)c2-c2c(F)cc(F)cc2F)c1` [Compound 45, 3-chloro-5-(3,5-dimethoxyphenyl)-6-(2-fluorophenyl)-4-(2,4,6-trifluorophenyl)pyridazine] gave a pest or weed control at 40 ppm (Septoria tritici) of 99%, a pest or weed control at 40 ppm (Botrytis cinerea) of 100% and a pest or weed control at 40 ppm (Alternaria solani) of 100%. For the same compound, the pest or weed control at 40 ppm (Septoria nodorum) was 100%, the pest or weed control at 40 ppm [1] was 100% and the pest or weed control at 40 ppm (Erysiphe graminis) was 100%.

With `COc1cncc(-c2c(-c3ccccc3F)nnc(C)c2-c2c(F)cc(F)cc2F)c1` [Compound 46] the “Test C rating” value (Septoria tritici) was 99* %, the “Test F rating” value (Botrytis cinerea) was 100* % and the “Test E rating” value (Alternaria solani) was 100* %. The “Test D rating” value (Septoria nodorum) was 0* %, the “Test B rating” value [1] was 100* % and the “Test A rating” value (Erysiphe graminis) was 97* %.
